Active and inactive are the calls of the source. The rule behind the calls is not given here.
Tests used:
[1] = tested on: PC-3; assay: Antiproliferative activity against AR negative human PC3 cells after 48 hrs by MTT assay; assay type: functional, cell-based; details: PC-3, 48 h
[2] = Selectivity index, ratio of IC50 for mouse 3T3 cells to IC50 for AR T877A mutant in human LNCAP cells; assay type: functional
[3] = Selectivity ratio of IC50 for AR negative human PC3 cells to IC50 for AR T877A mutant in human LNCAP cells
[4] = target: T1, Estrogen receptor (Homo sapiens) (UniProt P03372); assay: Activity at ER in human LNCAP cells assessed as inhibition of pS2 mRNA level at 5 uM after 24 hrs by SYBR Green dye based qPCR method; assay type: cell-based
T1 sequence (whole entry): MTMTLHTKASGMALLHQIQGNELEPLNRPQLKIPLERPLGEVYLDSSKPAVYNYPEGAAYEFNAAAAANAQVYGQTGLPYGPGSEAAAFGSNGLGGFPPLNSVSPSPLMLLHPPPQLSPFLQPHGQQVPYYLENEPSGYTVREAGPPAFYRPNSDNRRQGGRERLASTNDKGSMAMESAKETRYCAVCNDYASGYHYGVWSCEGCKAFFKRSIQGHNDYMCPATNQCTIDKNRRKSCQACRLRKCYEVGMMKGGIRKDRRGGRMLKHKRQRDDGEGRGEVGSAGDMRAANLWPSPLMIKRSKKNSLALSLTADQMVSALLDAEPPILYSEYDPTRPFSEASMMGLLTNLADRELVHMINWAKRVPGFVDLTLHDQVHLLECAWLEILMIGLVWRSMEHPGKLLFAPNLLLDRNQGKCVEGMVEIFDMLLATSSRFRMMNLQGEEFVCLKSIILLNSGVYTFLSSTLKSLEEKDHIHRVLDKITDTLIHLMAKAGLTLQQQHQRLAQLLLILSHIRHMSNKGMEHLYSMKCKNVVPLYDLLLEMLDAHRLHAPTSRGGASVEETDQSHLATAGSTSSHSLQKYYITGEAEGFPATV

[5] = tested on: Androgen receptor (Homo sapiens), P10275 [T878A]; assay: Antagonist activity at AR T877A mutant in human LNCAP cells assessed as inhibition of DHT-induced c-Myc mRNA level at 1 uM after 24 hrs by SYBR Green dye based qPCR method; assay type: cell-based
[6] = tested on: Androgen receptor (Homo sapiens), P10275 [T878A]; assay: Antagonist activity at AR T877A mutant in human LNCAP cells assessed as inhibition of DHT-induced TMPRSS2 mRNA level at 1 uM after 24 hrs by SYBR Green dye based qPCR method; assay type: cell-based
[7] = tested on: Androgen receptor (Homo sapiens), P10275 [T878A]; assay: Potency index, ratio of bicalutamide IC50 to compound IC50 for AR T877A mutant in human LNCAP cells assessed as inhibition of DHT-induced proliferation; assay type: cell-based
[8] = tested on: Androgen receptor (Homo sapiens), P10275 [T878A]; assay: Antagonist activity at AR T877A mutant in human LNCAP cells assessed as inhibition of DHT-induced Cyclin D1 mRNA level at 1 uM after 24 hrs by SYBR Green dye based qPCR method; assay type: cell-based
[9] = tested on: Androgen receptor (Homo sapiens), P10275 [T878A]; assay: Antagonist activity at AR T877A mutant in human LNCAP cells assessed as inhibition of DHT-induced PSA mRNA level at 1 uM after 24 hrs by SYBR Green dye based qPCR method; assay type: cell-based
[10] = tested on: Androgen receptor (Homo sapiens), P10275 [T878A]; assay: Potency index, ratio of R-bicalutamide IC50 to compound IC50 for AR T877A mutant in human LNCAP cells assessed as inhibition of DHT-induced proliferation; assay type: cell-based

Sequence of Androgen receptor (Homo sapiens), P10275 [T878A] (P10275 whole entry T878A): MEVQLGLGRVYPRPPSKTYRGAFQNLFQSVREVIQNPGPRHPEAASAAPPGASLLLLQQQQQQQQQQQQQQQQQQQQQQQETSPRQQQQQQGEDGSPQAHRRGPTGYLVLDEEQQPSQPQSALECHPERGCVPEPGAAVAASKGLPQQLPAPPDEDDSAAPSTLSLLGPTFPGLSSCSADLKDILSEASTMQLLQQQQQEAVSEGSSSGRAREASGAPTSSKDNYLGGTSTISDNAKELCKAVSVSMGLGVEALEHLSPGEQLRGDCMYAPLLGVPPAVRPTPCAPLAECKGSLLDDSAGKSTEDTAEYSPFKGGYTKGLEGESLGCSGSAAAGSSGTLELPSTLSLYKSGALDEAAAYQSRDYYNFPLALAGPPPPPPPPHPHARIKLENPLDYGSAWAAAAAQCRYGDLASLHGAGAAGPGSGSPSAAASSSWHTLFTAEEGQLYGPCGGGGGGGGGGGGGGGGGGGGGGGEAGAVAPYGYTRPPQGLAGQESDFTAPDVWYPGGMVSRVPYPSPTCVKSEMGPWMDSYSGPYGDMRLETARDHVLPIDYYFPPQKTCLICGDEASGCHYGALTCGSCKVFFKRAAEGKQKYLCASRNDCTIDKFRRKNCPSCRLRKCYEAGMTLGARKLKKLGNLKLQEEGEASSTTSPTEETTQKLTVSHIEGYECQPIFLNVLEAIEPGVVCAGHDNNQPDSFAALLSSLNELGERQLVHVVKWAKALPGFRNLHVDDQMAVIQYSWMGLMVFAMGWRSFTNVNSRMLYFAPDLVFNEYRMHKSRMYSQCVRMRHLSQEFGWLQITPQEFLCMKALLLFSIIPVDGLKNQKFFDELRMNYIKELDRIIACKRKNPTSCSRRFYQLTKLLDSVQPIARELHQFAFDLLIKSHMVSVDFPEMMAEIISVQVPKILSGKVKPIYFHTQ

Row | SMILES | IC50 [1] [µM] | Ratio IC50 [2] | Ratio IC50 [3] | further results
1 | N#Cc1ccc(-c2csc(N3C(=O)c4ccccc4C3=O)n2)cc1 | 40.3 | 3.57 | 3.67 | –
2 | COc1ccc(-c2csc(N3C(=O)c4ccc(F)cc4C3=O)n2)cc1 | 41.3 | 5.04 | 5.05 | –
3 | O=C1c2ccc(F)cc2C(=O)N1c1nc(-c2ccc([N+](=O)[O-])cc2)cs1 | 39.9 | 4.69 | 5.12 | –
4 | O=C1c2ccc(F)cc2C(=O)N1c1nc(-c2ccc(Cl)cc2)cs1 | 38 | 1.59 | 1.35 | –
5 | O=C1c2ccccc2C(=O)N1c1nc(-c2ccc(F)cc2)cs1 | 37.2 | 1.36 | 1.3 | –
6 | O=C1c2ccc(F)cc2C(=O)N1c1nc(-c2ccc(F)cc2)cs1 | 39.5 | 2.04 | 1.8 | –
7 | C[C@](O)(CS(=O)(=O)c1ccc(F)cc1)C(=O)Nc1ccc(C#N)c(C(F)(F)F)c1 [(R)-BICALUTAMIDE] | 59.8 | – | – | –
8 | Cc1ccc(-c2csc(N3C(=O)c4ccccc4C3=O)n2)cc1 | 38.4 | 1.73 | 1.32 | –
9 | CC(O)(CS(=O)(=O)c1ccc(F)cc1)C(=O)Nc1ccc(C#N)c(C(F)(F)F)c1 (stereo unspecified) [BICALUTAMIDE] | 60.7 | – | – | –
10 | Cc1ccc(-c2csc(N3C(=O)c4ccc(F)cc4C3=O)n2)cc1 | 44.4 | 1.51 | 1.71 | –
11 | O=C1c2ccccc2C(=O)N1c1nc(-c2ccccc2)cs1 | 43.9 | 1.26 | 1.19 | –
12 | O=C1c2ccccc2C(=O)N1c1nc(-c2ccc(Cl)cc2)cs1 | 44.9 | 1.91 | 1.71 | –
13 | COc1ccc(-c2csc(N3C(=O)c4ccccc4C3=O)n2)cc1 | 42.9 | 3.29 | 3.14 | –
14 | N#Cc1ccc(-c2csc(N3C(=O)c4ccc(F)cc4C3=O)n2)cc1 | 43.1 | 7.09 | 7.23 | inhibition [4]: inactive; inhibition [5]: Active; inhibition [6]: Active; Ratio IC50 [7]: 7.4; inhibition [8]: Active; inhibition [9]: Active; Ratio IC50 [10]: 4.6
15 | O=C1c2ccc(F)cc2C(=O)N1c1nc(-c2ccccc2)cs1 | 40.2 | 1.9 | 1.17 | –
16 | O=C1c2ccccc2C(=O)N1c1nc(-c2ccc([N+](=O)[O-])cc2)cs1 | 41.8 | 3.15 | 3.17 | –
